From patent US20140342392A1, “OPTIMIZED INSECT-BASED EX VIVO MODEL FOR TESTING BLOOD-BRAIN BARRIER PENETRATION AND METHOD FOR EXPOSING INSECT BRAIN TO CHEMICAL COMPOUNDS” (ENTOMOPHARM ApS, priority 2011, published 2014)

Test system: locust brain (blood-brain barrier)
Conditions: co-treatment with verapamil, brain removed from the cuticula, also after removal of the neural lamella
Experimental: 1. […] The insects may be obtained from local suppliers or bred in house. The grasshoppers were reared under crowded conditions at 28° C. and a 12:12 dark:light photocycle and fed fresh grass and bran. Before experiments the grasshoppers were fed ecologically cultivated wheat for two weeks. Animals used are adult males (in some experiments females) between two to four weeks after adult emergence. […] After various times of exposure the preparation is washed in saline and the brain is dissected under microscope with fine forceps. The neural lamella surrounding the brain is removed in saline and the brain is then […] in saline, centrifuged and the supernatant frozen until analyses. Drug concentration is analysed by HPLC, LC/MSMS or other methods.

C=C[C@H]1C[N@@]2CC[C@H]1C[C@@H]2[C@@H](O)c1ccnc2ccc(OC)cc12 [quinidine]
brain concentration with versus without Pgp inhibitor (FIG. 2): higher after co-treatment with the Pgp inhibitor verapamil
